Measured values taken from patent US12415774B2, “Polyol-based esters of hydroxycarboxylic acids” (KetoLipix Therapeutics GmbH, priority 2019, dated 2025).

Tested on: pancreatin (Panzytrat 40,000)
Protocol: Both media are from the company Biorelevant®, Ltd. in Great Britain. In addition, in some experiments porcine pancreas is added (Panzytrat® 40,000, Fa. Allergan).
The pancreatin is used in the form of the commercially available product Panzytrat® 40,000 from the Allergan company. The whole mixture is stirred on a hot plate at 50° C.; the course of the reaction is determined and monitored by continuously recording the acid number over time.

| Substance | cleavage by pancreatin to the free 3-hydroxybutyric acid |
| --- | --- |
| 3-BHB-di-diglycerol ester | cleaved by pancreatin to the free 3-hydroxybutyric acid |
| 3-BHB-mono-diglycerol ester | cleaved by pancreatin to the free 3-hydroxybutyric acid |
| 3-BHB-tri-diglycerol ester | cleaved by pancreatin to the free 3-hydroxybutyric acid |
